Results on one compound are retold here after ChEMBL document CHEMBL4765464, “Discovery of BMS-986144, a Third-Generation, Pan-Genotype NS3/4A Protease Inhibitor for the Treatment of Hepatitis C Virus Infection” (J Med Chem, 2020).

The nature of data set [1]: Inhibition of recombinant full length NS3/4A protease in Hepatitis C virus subtype 3a infected in human HuH7 cells using Ac-Asp-Glu-Asp (EDANS)-Glu-Glu-Abu-(COO) Ala-Ser-Lys (DABCYL)-NH2 as substrate by FRET assay. The conditions noted are these: Huh-7.
The nature of data set [2]: Inhibition of recombinant full length NS3/4A protease in Hepatitis C virus subtype 3a replicon infected in human HuH7 cells preincubated for 3 days followed by substrate addition and measured after 2 hrs by renilla luciferase reporter gene assay. The data set is classed as cell-based. The conditions noted are these: Huh-7. (In general: A replicon is a self-replicating genome or part of one, used to study replication in cells.)

A short description of data set [3]: Metabolic stability in human liver microsomes assessed as half-life incubated for 5 to 45 mins in presence of NADPH by LC-MS analysis. The data set is classed as ADME, Microsome. The conditions noted are these: time 5-45 min. On the technique in general: Liver microsomes are vesicles of endoplasmic reticulum, rich in cytochrome P450 enzymes.
A short description of data set [4]: AUC (0 to 24 hrs) in rat at 5 mg/kg, po. The data set is classed as ADME, organism-based. Also noted: time < 24 hr, route oral, dose 5 mg/kg. The conditions noted are these: in vivo.
The nature of data set [5]: Ratio of drug concentration in liver to plasma in rat at 5 mg/kg, po measured upto 24 hrs. The data set is classed as ADME, organism-based. The settings on record: liver and plasma.
The nature of data set [6]: AUC in rat at 5 mg/kg, po or 1 mg/kg, iv. The data set is classed as ADME, organism-based. Also noted: dose 5 mg/kg. The settings on record: in vivo.
Data set [7] in a line: Inhibition of HCV 5a NS3/4A protease preincubated for 45 mins in presence of compound. More on the design: species or system Hepatitis C virus subtype 5a.
Data set [8] is described as follows: Selectivity index, ratio of IC50 for inhibition of HCV 1a NS3/4A protease to IC50 for inhibition of HCV 1a NS3/4A protease preincubated for 45 mins in presence of compound.
Data set [9] is described as follows: Selectivity index, ratio of IC50 for inhibition of HCV 3a NS3/4A protease to IC50 for inhibition of HCV 3a NS3/4A protease preincubated for 45 mins in presence of compound.
For data set [10], the target named is T1, Cytochrome P450 3A4 (Homo sapiens, UniProt P08684). As to the kind of experiment: Inhibition of human CYP3A4 in human pooled liver microsomes in presence of midazolam as substrate preincubated for 0 mins in presence of NADPH followed by addition of substrate by LC-MS/MS analysis. The data set is classed as ADME.
T1 sequence (P08684 whole entry): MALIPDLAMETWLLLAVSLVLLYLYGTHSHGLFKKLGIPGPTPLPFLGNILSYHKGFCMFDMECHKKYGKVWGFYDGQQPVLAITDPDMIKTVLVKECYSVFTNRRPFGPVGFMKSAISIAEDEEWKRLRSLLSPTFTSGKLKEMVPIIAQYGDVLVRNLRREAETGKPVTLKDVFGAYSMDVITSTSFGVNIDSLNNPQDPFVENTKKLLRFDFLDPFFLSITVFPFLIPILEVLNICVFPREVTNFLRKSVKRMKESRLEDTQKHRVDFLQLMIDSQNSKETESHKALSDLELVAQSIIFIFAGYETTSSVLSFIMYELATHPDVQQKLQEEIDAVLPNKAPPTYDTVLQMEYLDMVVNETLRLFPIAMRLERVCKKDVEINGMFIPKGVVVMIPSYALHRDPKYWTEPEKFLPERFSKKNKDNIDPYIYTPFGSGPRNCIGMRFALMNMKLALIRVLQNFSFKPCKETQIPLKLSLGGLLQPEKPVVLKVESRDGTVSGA
Data set [11] concerns the target T1, Cytochrome P450 3A4. As to the kind of experiment: Inhibition of human CYP3A4 in human pooled liver microsomes in presence of midazolam as substrate preincubated for 30 mins in presence of NADPH followed by addition of substrate by LC-MS/MS analysis. The data set is classed as ADME.

By IC50 is commonly meant the midpoint of a concentration-inhibition curve. What is called EC50 is the concentration that produces a half-maximal response. As usually defined, the half-life is the time needed for the level to fall by half in the phase considered. Broadly, the AUC(0-t) is exposure summed from dosing to a finite time, without extrapolation to infinity. A high value points to more exposure. A word on the Kp: it is tissue or fluid exposure divided by exposure in the circulation. In general, AUC refers to the area under the concentration-time curve, a measure of exposure. Read a high AUC as more exposure. Regarding `CC[C@@H]1C[C@H](C)CC/C=C\[C@@H]2C[C@@]2(C(=O)NS(=O)(=O)C2(C)CC2)NC(=O)[C@@H]2C[C@@H](Oc3nccc4cc(OC)c(F)cc34)CN2C(=O)[C@H]1NC(=O)OC(C)(C)C(F)(F)F`, the IC50 is 6.3 nM in data set [1], 0.1 nM in data set [7], greater than 40000 nM on Cytochrome P450 3A4 [10] and 2850 nM at Cytochrome P450 3A4 [11]. In addition, the EC50 in data set [2] was determined as 14 nM. The half-life in [3] is 28 min. The AUC(0-t) at 24 h in [4] was 151 µM·h. Also, the Kp at 24 h in [5] amounted to 1.5. The same compound came in with an AUC in data set [6] of 241 µM·h. The Selectivity Index worked out at 4 in data set [8] and 1 in data set [9].
